# From ChEMBL document CHEMBL1671662, “In vitro activities of telavancin and six comparator agents against anaerobic bacterial isolates” (2009)
# Assays:
# Assay type in all cases: functional
# Hoylesella oralis = test: Antibacterial activity against Prevotella oralis by CLSI M11-A6 agar dilution method
# [1] = system: Peptostreptococcus anaerobius; test: Antibacterial activity against Peptostreptococcus anaerobius by CLSI M11-A6 agar dilution method
# Clostridium sporogenes = test: Antibacterial activity against Clostridium sporogenes by CLSI M11-A6 agar dilution method
# [2] = system: Bifidobacterium pseudolongum; test: Antibacterial activity against Bifidobacterium pseudolongum by CLSI M11-A6 agar dilution method
# [3] = system: Prevotella melaninogenica; test: Antibacterial activity against Prevotella melaninogenica by CLSI M11-A6 agar dilution method
# Blautia luti = test: Antibacterial activity against Ruminococcus luti by CLSI M11-A6 agar dilution method
# Prevotella oris = test: Antibacterial activity against Prevotella oris by CLSI M11-A6 agar dilution method; details: Segatella oris
# Prevotella bivia = test: Antibacterial activity against Prevotella bivia by CLSI M11-A6 agar dilution method
# Blautia producta = test: Antibacterial activity against Ruminococcus productus by CLSI M11-A6 agar dilution method
# Bacteroides fragilis = test: Antibacterial activity against Bacteroides fragilis by CLSI M11-A6 agar dilution method
# Anaerococcus prevotii = test: Antibacterial activity against Anaerococcus prevotii by CLSI M11-A6 agar dilution method
# Clostridium disporicum = test: Antibacterial activity against Clostridium disporicum by CLSI M11-A6 agar dilution method
# [4] = system: Clostridium sporosphaeroides; test: Antibacterial activity against Clostridium sporosphaeroides by CLSI M11-A6 agar dilution method; details: Faecalispora sporosphaeroides
# [5] = system: Peptoniphilus asaccharolyticus; test: Antibacterial activity against Peptoniphilus asaccharolyticus by CLSI M11-A6 agar dilution method
# Clostridium spiroforme = test: Antibacterial activity against Clostridium spiroforme by CLSI M11-A6 agar dilution method; details: Thomasclavelia spiroformis
# [6] = system: Catenibacterium mitsuokai; test: Antibacterial activity against Catenibacterium mitsuokai by CLSI M11-A6 agar dilution method
# Eggerthella lenta = test: Antibacterial activity against Eggerthella lenta by CLSI M11-A6 agar dilution method
# Finegoldia magna = test: Antibacterial activity against Finegoldia magna by CLSI M11-A6 agar dilution method
# Coriobacterium = test: Antibacterial activity against […] by CLSI M11-A6 agar dilution method
# Ruminococcus gnavus = test: Antibacterial activity against Ruminococcus gnavus by CLSI M11-A6 agar dilution method; details: Mediterraneibacter gnavus
# Clostridium tertium = test: Antibacterial activity against Clostridium tertium by CLSI M11-A6 agar dilution method
# Clostridium bolteae = test: Antibacterial activity against Clostridium bolteae by CLSI M11-A6 agar dilution method; details: Enterocloster bolteae
# Clostridium hathewayi = test: Antibacterial activity against Clostridium hathewayi by CLSI M11-A6 agar dilution method; details: Hungatella hathewayi
# [7] = system: Streptococcus intermedius; test: Antibacterial activity against Streptococcus intermedius by CLSI M11-A6 agar dilution method
# [Clostridium] innocuum = Antibacterial activity against Clostridium innocuum by CLSI M11-A6 agar dilution method
# Prevotella buccae = test: Antibacterial activity against Prevotella buccae by CLSI M11-A6 agar dilution method; details: Segatella buccae
# Bifidobacterium dentium = test: Antibacterial activity against Bifidobacterium dentium by CLSI M11-A6 agar dilution method
# Parabacteroides merdae = test: Antibacterial activity against Parabacteroides merdae by CLSI M11-A6 agar dilution method
# Actinomyces naeslundii = test: Antibacterial activity against Actinomyces naeslundii by CLSI M11-A6 agar dilution method
# Holdemania filiformis = test: Antibacterial activity against Holdemania filiformis by CLSI M11-A6 agar dilution method
# [8] = system: Streptococcus constellatus; test: Antibacterial activity against Streptococcus constellatus by CLSI M11-A6 agar dilution method
# Hoylesella loescheii = test: Antibacterial activity against Prevotella loescheii by CLSI M11-A6 agar dilution method
# Prevotella intermedia = test: Antibacterial activity against Prevotella intermedia by CLSI M11-A6 agar dilution method
# Clostridium subterminale = test: Antibacterial activity against Clostridium subterminale by CLSI M11-A6 agar dilution method
# [9] = system: Clostridium celerecrescens; test: Antibacterial activity against Clostridium celerecrescens by CLSI M11-A6 agar dilution method; details: Lacrimispora celerecrescens
# Clostridium sp. = test: Antibacterial activity against Clostridium sp. by CLSI M11-A6 agar dilution method
# Bacteroides ovatus = test: Antibacterial activity against Bacteroides ovatus by CLSI M11-A6 agar dilution method
# [10] = system: Paraclostridium bifermentans; test: Antibacterial activity against Clostridium bifermentans by CLSI M11-A6 agar dilution method
# Clostridium perfringens = test: Antibacterial activity against Clostridium perfringens by CLSI M11-A6 agar dilution method
# Fusobacterium varium = test: Antibacterial activity against Fusobacterium varium by CLSI M11-A6 agar dilution method
# Clostridium glycolicum = test: Antibacterial activity against Clostridium glycolicum by CLSI M11-A6 agar dilution method; details: Terrisporobacter glycolicus
# [11] = system: Parabacteroides distasonis; test: Antibacterial activity against Parabacteroides distasonis by CLSI M11-A6 agar dilution method
# [12] = system: Bacteroides thetaiotaomicron; test: Antibacterial activity against Bacteroides thetaiotaomicron by CLSI M11-A6 agar dilution method
smiles,measurement,setting,value
CCCCCCCCCCNCCN[C@@]1(C)C[C@H](O[C@H]2[C@H](Oc3c4cc5cc3Oc3ccc(cc3Cl)[C@@H](O)[C@@H](NC(=O)[C@@H](CC(C)C)NC)C(=O)N[C@@H](CC(N)=O)C(=O)N[C@H]5C(=O)N[C@H]3C(=O)N[C@H](C(=O)N[C@H](C(=O)O)c5cc(O)c(CNCP(=O)(O)O)c(O)c5-c5cc3ccc5O)[C@H](O)c3ccc(c(Cl)c3)O4)O[C@H](CO)[C@@H](O)[C@@H]2O)O[C@@H](C)[C@H]1O [TELAVANCIN],MIC50,Hoylesella oralis,8 µg/mL
same,MIC90,Hoylesella oralis,64 µg/mL
same,MIC50,[1],≤ 0.12 µg/mL
same,MIC90,[1],0.25 µg/mL
same,MIC50,Clostridium sporogenes,≤ 0.12 µg/mL
same,MIC90,Clostridium sporogenes,0.25 µg/mL
same,MIC50,[2],≤ 0.12 µg/mL
same,MIC90,[2],0.5 µg/mL
same,MIC50,[3],8 µg/mL
same,MIC90,[3],64 µg/mL
same,MIC50,Blautia luti,≤ 0.12 µg/mL
same,MIC90,Blautia luti,≤ 0.12 µg/mL
same,MIC50,Prevotella oris,8 µg/mL
same,MIC90,Prevotella oris,64 µg/mL
same,MIC50,Prevotella bivia,8 µg/mL
same,MIC90,Prevotella bivia,64 µg/mL
same,MIC50,Blautia producta,≤ 0.12 µg/mL
same,MIC90,Blautia producta,≤ 0.12 µg/mL
same,MIC,Bacteroides fragilis,> 64 µg/mL
same,MIC50,Bacteroides fragilis,> 64 µg/mL
same,MIC90,Bacteroides fragilis,> 64 µg/mL
same,MIC50,Anaerococcus prevotii,≤ 0.12 µg/mL
same,MIC90,Anaerococcus prevotii,0.25 µg/mL
same,MIC50,Clostridium disporicum,≤ 0.12 µg/mL
same,MIC90,Clostridium disporicum,0.25 µg/mL
same,MIC50,[4],≤ 0.12 µg/mL
same,MIC90,[4],0.25 µg/mL
same,MIC50,[5],≤ 0.12 µg/mL
same,MIC90,[5],0.25 µg/mL
same,MIC50,Clostridium spiroforme,≤ 0.12 µg/mL
same,MIC90,Clostridium spiroforme,0.25 µg/mL
same,MIC50,[6],≤ 0.12 µg/mL
same,MIC90,[6],0.5 µg/mL
same,MIC50,Eggerthella lenta,≤ 0.12 µg/mL
same,MIC90,Eggerthella lenta,0.5 µg/mL
same,MIC50,Finegoldia magna,≤ 0.12 µg/mL
same,MIC90,Finegoldia magna,0.25 µg/mL
same,MIC50,Coriobacterium,≤ 0.12 µg/mL
same,MIC90,Coriobacterium,0.5 µg/mL
same,MIC,Ruminococcus gnavus,≤ 0.12 µg/mL
same,MIC50,Ruminococcus gnavus,≤ 0.12 µg/mL
same,MIC90,Ruminococcus gnavus,≤ 0.12 µg/mL
same,MIC50,Clostridium tertium,≤ 0.12 µg/mL
same,MIC90,Clostridium tertium,0.25 µg/mL
same,MIC50,Clostridium bolteae,4 µg/mL
same,MIC90,Clostridium bolteae,8 µg/mL
same,MIC50,Clostridium hathewayi,0.5 µg/mL
same,MIC90,Clostridium hathewayi,1 µg/mL
same,MIC50,[7],≤ 0.12 µg/mL
same,MIC90,[7],≤ 0.12 µg/mL
same,MIC50,[Clostridium] innocuum,2 µg/mL
same,MIC90,[Clostridium] innocuum,2 µg/mL
same,MIC50,Prevotella buccae,8 µg/mL
same,MIC90,Prevotella buccae,64 µg/mL
same,MIC50,Bifidobacterium dentium,≤ 0.12 µg/mL
same,MIC90,Bifidobacterium dentium,0.5 µg/mL
same,MIC,Parabacteroides merdae,> 64 µg/mL
same,MIC50,Parabacteroides merdae,> 64 µg/mL
same,MIC90,Parabacteroides merdae,> 64 µg/mL
same,MIC50,Actinomyces naeslundii,≤ 0.12 µg/mL
same,MIC90,Actinomyces naeslundii,0.5 µg/mL
same,MIC50,Holdemania filiformis,≤ 0.12 µg/mL
same,MIC90,Holdemania filiformis,0.5 µg/mL
same,MIC50,[8],≤ 0.12 µg/mL
same,MIC90,[8],≤ 0.12 µg/mL
same,MIC50,Hoylesella loescheii,8 µg/mL
same,MIC90,Hoylesella loescheii,64 µg/mL
same,MIC50,Prevotella intermedia,8 µg/mL
same,MIC90,Prevotella intermedia,64 µg/mL
same,MIC,Clostridium subterminale,≤ 0.12 µg/mL
same,MIC50,Clostridium subterminale,≤ 0.12 µg/mL
same,MIC90,Clostridium subterminale,≤ 0.12 µg/mL
same,MIC50,[9],≤ 0.12 µg/mL
same,MIC90,[9],0.25 µg/mL
same,MIC50,Clostridium sp.,≤ 0.12 µg/mL
same,MIC90,Clostridium sp.,0.25 µg/mL
same,MIC,Bacteroides ovatus,> 64 µg/mL
same,MIC50,Bacteroides ovatus,> 64 µg/mL
same,MIC90,Bacteroides ovatus,> 64 µg/mL
same,MIC50,[10],≤ 0.12 µg/mL
same,MIC90,[10],0.25 µg/mL
same,MIC50,Clostridium perfringens,≤ 0.12 µg/mL
same,MIC90,Clostridium perfringens,0.25 µg/mL
same,MIC50,Fusobacterium varium,> 64 µg/mL
same,MIC90,Fusobacterium varium,> 64 µg/mL
same,MIC50,Clostridium glycolicum,≤ 0.12 µg/mL
same,MIC90,Clostridium glycolicum,0.25 µg/mL
same,MIC,[11],> 64 µg/mL
same,MIC50,[11],> 64 µg/mL
same,MIC90,[11],> 64 µg/mL
same,MIC50,[12],> 64 µg/mL
same,MIC90,[12],> 64 µg/mL
